PMC7311426, “An amphipathic peptide with antibiotic activity against multidrug-resistant Gram-negative bacteria” (Nature Communications, 2020)
In brackets after ≈: the same amount, converted by molar mass. Residues, ends and D or L forms follow the SMILES beside them.

What was measured:
[1] = system: P. aeruginosa; experiment: microbe, parasite or virus in culture
In short: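 MICs were scored by eye after 18-20 h static incubation at 37 °C, with bacteria at 5 × 10^5 CFU mL^−1 in MHB. Peptides were serially diluted 2-fold over 12 points, top 128 or 64 μg mL^−1. CAMHB (CLSI) and 1% agarose-MHB variants were also run, at least six replicates.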

[2] = system: A. baumannii clinical isolates; experiment: microbe, parasite or virus in culture; conditions: clinical isolates
In short: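 MIC90 from CLSI broth microdilution (M07-A9) in two clinical-isolate panels. US panel (331 isolates, 2010-2012): AA139 diluted in 0.01% acetic acid/0.1% BSA. Worldwide panel (445 isolates, 2011-2013, four regions): CAMHB, with 0.002% Tween 80 added for AA139 and polymyxin B.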

## CC(C)[C@@H]1NC(=O)[C@H](Cc2ccc(O)cc2)NC(=O)[C@H](Cc2c[nH]c3ccccc23)NC(=O)[C@@H](NC(=O)[C@H](Cc2ccccc2)NC(=O)CN)CSSC[C@@H](C(=O)N[C@@H](CC(N)=O)C(=O)O)NC(=O)[C@H](CCCNC(=N)N)NC(=O)[C@H](CCCNC(=N)N)NC(=O)[C@H](Cc2ccc(O)cc2)NC(=O)[C@@H]2CSSC[C@H](NC1=O)C(=O)N[C@@H](C)C(=O)N[C@@H](CCCNC(=N)N)C(=O)N[C@@H](CCCNC(=N)N)C(=O)N[C@@H](CC(N)=O)C(=O)NCC(=O)N[C@@H](C)C(=O)N[C@@H](CCCNC(=N)N)C(=O)N[C@@H](C(C)C)C(=O)N2 [AA139] (HELM PEPTIDE1{G.F.C.W.Y.V.C.A.R.R.N.G.A.R.V.C.Y.R.R.C.N}$PEPTIDE1,PEPTIDE1,3:R3-20:R3|PEPTIDE1,PEPTIDE1,7:R3-16:R3$$$V2.0)
[1]; P. aeruginosa ATCC 27853 spontaneous mutant, AA139 selection 4X, plate 2, colony 4, drug-free passage 1
  MIC, broth microdilution: 1 µg/mL (≈ 0.392 µM)
[1]; P. aeruginosa ATCC 27853 spontaneous mutant, AA139 selection 4X, plate 2, colony 4, drug-free passage 5
  MIC, broth microdilution: 0.5 µg/mL (≈ 0.196 µM)
[1]; P. aeruginosa ATCC 27853 spontaneous mutant, AA139 selection 8X, plate 1, colony 1, drug-free passage 1
  MIC, broth microdilution: 1, 1 µg/mL
[1]; P. aeruginosa ATCC 27853 spontaneous mutant, AA139 selection 8X, plate 1, colony 1, drug-free passage 5
  MIC, broth microdilution: 1, 1 µg/mL
[1]; P. aeruginosa ATCC 27853 spontaneous mutant, AA139 selection 8X, plate 1, colony 2, drug-free passage 1
  MIC, broth microdilution: 1 µg/mL (≈ 0.392 µM)
[1]; P. aeruginosa ATCC 27853 spontaneous mutant, AA139 selection 8X, plate 1, colony 2, drug-free passage 5
  MIC, broth microdilution: 2 µg/mL (≈ 0.784 µM)
[1]; P. aeruginosa ATCC 27853 spontaneous mutant, AA139 selection 8X, plate 1, colony 3, drug-free passage 1
  MIC, broth microdilution: 1, 1 µg/mL
[1]; P. aeruginosa ATCC 27853 spontaneous mutant, AA139 selection 8X, plate 1, colony 3, drug-free passage 5
  MIC, broth microdilution: 1, 1 µg/mL
[1]; P. aeruginosa ATCC 27853 spontaneous mutant, AA139 selection 8X, plate 1, colony 4, drug-free passage 1
  MIC, broth microdilution: 1, 1 µg/mL
[1]; P. aeruginosa ATCC 27853 spontaneous mutant, AA139 selection 8X, plate 1, colony 4, drug-free passage 5
  MIC, broth microdilution: 1, 1 µg/mL
[1]; P. aeruginosa ATCC 27853 spontaneous mutant, AA139 selection 8X, plate 1, colony 5, drug-free passage 1
  MIC, broth microdilution: 1, 1 µg/mL
[1]; P. aeruginosa ATCC 27853 spontaneous mutant, AA139 selection 8X, plate 1, colony 5, drug-free passage 5
  MIC, broth microdilution: 1, 1 µg/mL
[1]; P. aeruginosa FADDI-070, MDR, PmxR, MHB/CAMHB, mode of 6 replicates
  BMD MIC: 2 µg/mL
[1]; P. aeruginosa UNT 138-1 spontaneous mutant, AA139 selection 4X, plate 1, colony 1, drug-free passage 1
  MIC, broth microdilution: 2, 2 µg/mL
[1]; P. aeruginosa UNT 138-1 spontaneous mutant, AA139 selection 4X, plate 1, colony 1, drug-free passage 5
  MIC, broth microdilution: 2, 2 µg/mL
[1]; P. aeruginosa UNT 138-1 spontaneous mutant, AA139 selection 4X, plate 1, colony 2, drug-free passage 1
  MIC, broth microdilution: 1, 1 µg/mL
[1]; P. aeruginosa UNT 138-1 spontaneous mutant, AA139 selection 4X, plate 1, colony 2, drug-free passage 5
  MIC, broth microdilution: 1, 1 µg/mL
[1]; P. aeruginosa UNT 138-1 spontaneous mutant, AA139 selection 4X, plate 1, colony 3, drug-free passage 1
  MIC, broth microdilution: 1, 1 µg/mL
[1]; P. aeruginosa UNT 138-1 spontaneous mutant, AA139 selection 4X, plate 1, colony 3, drug-free passage 5
  MIC, broth microdilution: 1, 1 µg/mL
[1]; P. aeruginosa UNT 138-1 spontaneous mutant, AA139 selection 4X, plate 1, colony 4, drug-free passage 1
  MIC, broth microdilution: 1, 1 µg/mL
[1]; P. aeruginosa UNT 138-1 spontaneous mutant, AA139 selection 4X, plate 1, colony 4, drug-free passage 5
  MIC, broth microdilution: 1, 1 µg/mL
[1]; P. aeruginosa UNT 138-1 spontaneous mutant, AA139 selection 4X, plate 1, colony 5, drug-free passage 1
  MIC, broth microdilution: 2 µg/mL (≈ 0.784 µM)
[1]; P. aeruginosa UNT 138-1 spontaneous mutant, AA139 selection 4X, plate 1, colony 5, drug-free passage 5
  MIC, broth microdilution: 1 µg/mL (≈ 0.392 µM)
[1]; P. aeruginosa UNT 138-1 spontaneous mutant, AA139 selection 4X, plate 1, colony 6, drug-free passage 1
  MIC, broth microdilution: 2 µg/mL (≈ 0.784 µM)
[1]; P. aeruginosa UNT 138-1 spontaneous mutant, AA139 selection 4X, plate 1, colony 6, drug-free passage 5
  MIC, broth microdilution: 1 µg/mL (≈ 0.392 µM)
[1]; P. aeruginosa UNT 138-1 spontaneous mutant, AA139 selection 4X, plate 1, colony 7, drug-free passage 1
  MIC, broth microdilution: 2 µg/mL (≈ 0.784 µM)
[1]; P. aeruginosa UNT 138-1 spontaneous mutant, AA139 selection 4X, plate 1, colony 7, drug-free passage 5
  MIC, broth microdilution: 1 µg/mL (≈ 0.392 µM)
[1]; P. aeruginosa UNT 138-1 spontaneous mutant, AA139 selection 4X, plate 2, colony 1, drug-free passage 1
  MIC, broth microdilution: 2, 2 µg/mL
[1]; P. aeruginosa UNT 138-1 spontaneous mutant, AA139 selection 4X, plate 2, colony 1, drug-free passage 5
  MIC, broth microdilution: 2, 2 µg/mL
[1]; P. aeruginosa UNT 138-1 spontaneous mutant, AA139 selection 4X, plate 2, colony 2, drug-free passage 1
  MIC, broth microdilution: 2 µg/mL (≈ 0.784 µM)
[1]; P. aeruginosa UNT 138-1 spontaneous mutant, AA139 selection 4X, plate 2, colony 2, drug-free passage 5
  MIC, broth microdilution: 1 µg/mL (≈ 0.392 µM)
[1]; P. aeruginosa UNT 138-1 spontaneous mutant, AA139 selection 4X, plate 2, colony 3, drug-free passage 1
  MIC, broth microdilution: 2, 2 µg/mL
[1]; P. aeruginosa UNT 138-1 spontaneous mutant, AA139 selection 4X, plate 2, colony 3, drug-free passage 5
  MIC, broth microdilution: 2, 2 µg/mL
[1]; P. aeruginosa UNT 138-1 spontaneous mutant, AA139 selection 4X, plate 2, colony 4, drug-free passage 1
  MIC, broth microdilution: 2 µg/mL (≈ 0.784 µM)
[1]; P. aeruginosa UNT 138-1 spontaneous mutant, AA139 selection 4X, plate 2, colony 4, drug-free passage 5
  MIC, broth microdilution: 1 µg/mL (≈ 0.392 µM)
[1]; P. aeruginosa UNT 138-1 spontaneous mutant, AA139 selection 4X, plate 2, colony 5, drug-free passage 1
  MIC, broth microdilution: 2 µg/mL (≈ 0.784 µM)
[1]; P. aeruginosa UNT 138-1 spontaneous mutant, AA139 selection 4X, plate 2, colony 5, drug-free passage 5
  MIC, broth microdilution: 1 µg/mL (≈ 0.392 µM)
[1]; P. aeruginosa UNT 138-1 spontaneous mutant, AA139 selection 4X, plate 2, colony 6, drug-free passage 1
  MIC, broth microdilution: 2 µg/mL (≈ 0.784 µM)
[1]; P. aeruginosa UNT 138-1 spontaneous mutant, AA139 selection 4X, plate 2, colony 6, drug-free passage 5
  MIC, broth microdilution: 1 µg/mL (≈ 0.392 µM)
[1]; P. aeruginosa UNT 138-1 spontaneous mutant, AA139 selection 4X, plate 2, colony 7, drug-free passage 1
  MIC, broth microdilution: 2 µg/mL (≈ 0.784 µM)
[1]; P. aeruginosa UNT 138-1 spontaneous mutant, AA139 selection 4X, plate 2, colony 7, drug-free passage 5
  MIC, broth microdilution: 1 µg/mL (≈ 0.392 µM)
[1]; P. aeruginosa UNT 138-1 spontaneous mutant, AA139 selection 8X, plate 1, colony 1, drug-free passage 1
  MIC, broth microdilution: 2 µg/mL (≈ 0.784 µM)
[1]; P. aeruginosa UNT 138-1 spontaneous mutant, AA139 selection 8X, plate 1, colony 1, drug-free passage 5
  MIC, broth microdilution: 1 µg/mL (≈ 0.392 µM)
[1]; P. aeruginosa UNT 138-1 spontaneous mutant, AA139 selection 8X, plate 1, colony 2, drug-free passage 1
  MIC, broth microdilution: 1, 1 µg/mL
[1]; P. aeruginosa UNT 138-1 spontaneous mutant, AA139 selection 8X, plate 1, colony 2, drug-free passage 5
  MIC, broth microdilution: 1, 1 µg/mL
[1]; P. aeruginosa UNT 138-1 spontaneous mutant, AA139 selection 8X, plate 1, colony 3, drug-free passage 1
  MIC, broth microdilution: 1, 1 µg/mL
[1]; P. aeruginosa UNT 138-1 spontaneous mutant, AA139 selection 8X, plate 1, colony 3, drug-free passage 5
  MIC, broth microdilution: 1, 1 µg/mL
[1]; P. aeruginosa UNT 138-1 spontaneous mutant, AA139 selection 8X, plate 1, colony 4, drug-free passage 1
  MIC, broth microdilution: 2, 2 µg/mL
[1]; P. aeruginosa UNT 138-1 spontaneous mutant, AA139 selection 8X, plate 1, colony 4, drug-free passage 5
  MIC, broth microdilution: 2, 2 µg/mL
[1]; P. aeruginosa UNT 138-1 spontaneous mutant, AA139 selection 8X, plate 1, colony 5, drug-free passage 1
  MIC, broth microdilution: 1 µg/mL (≈ 0.392 µM)
[1]; P. aeruginosa UNT 138-1 spontaneous mutant, AA139 selection 8X, plate 1, colony 5, drug-free passage 5
  MIC, broth microdilution: 2 µg/mL (≈ 0.784 µM)
[1]; P. aeruginosa UNT 138-1 spontaneous mutant, AA139 selection 8X, plate 2, colony 1, drug-free passage 1
  MIC, broth microdilution: 1, 1 µg/mL
[1]; P. aeruginosa UNT 138-1 spontaneous mutant, AA139 selection 8X, plate 2, colony 1, drug-free passage 5
  MIC, broth microdilution: 1, 1 µg/mL
[2]
  MIC90 (A. baumannii): 2.0 µg/mL (≈ 0.784 µM)
  MIC against colistin-resistant isolates (did not surpass): ≤ 2 µg/mL
